Data from ChEMBL document CHEMBL1124522, “Synthesis and antitumor activity of 5-deaza-5,6,7,8-tetrahydrofolic acid and its N10-substituted analogues” (J Med Chem, 1989).
“And” between values parts separate entries of the source, which are not always exact repeats. Identical values can stand only once.

Experiments:
[1] = system: CCRF-CEM; assay: Compound was tested for its antitumor activity against human lymphoblastic leukemic cells(CCRF-CEM) in vitro; format: functional, cell-based; details: Homo sapiens, CCRF-CEM
[2] = molecular target: T1, Folylpolyglutamate synthase, mitochondrial (Mus musculus) (UniProt P48760); assay: Apparent catalytic rate folyl-poly-glutamate synthetase
T1 sequence (whole entry): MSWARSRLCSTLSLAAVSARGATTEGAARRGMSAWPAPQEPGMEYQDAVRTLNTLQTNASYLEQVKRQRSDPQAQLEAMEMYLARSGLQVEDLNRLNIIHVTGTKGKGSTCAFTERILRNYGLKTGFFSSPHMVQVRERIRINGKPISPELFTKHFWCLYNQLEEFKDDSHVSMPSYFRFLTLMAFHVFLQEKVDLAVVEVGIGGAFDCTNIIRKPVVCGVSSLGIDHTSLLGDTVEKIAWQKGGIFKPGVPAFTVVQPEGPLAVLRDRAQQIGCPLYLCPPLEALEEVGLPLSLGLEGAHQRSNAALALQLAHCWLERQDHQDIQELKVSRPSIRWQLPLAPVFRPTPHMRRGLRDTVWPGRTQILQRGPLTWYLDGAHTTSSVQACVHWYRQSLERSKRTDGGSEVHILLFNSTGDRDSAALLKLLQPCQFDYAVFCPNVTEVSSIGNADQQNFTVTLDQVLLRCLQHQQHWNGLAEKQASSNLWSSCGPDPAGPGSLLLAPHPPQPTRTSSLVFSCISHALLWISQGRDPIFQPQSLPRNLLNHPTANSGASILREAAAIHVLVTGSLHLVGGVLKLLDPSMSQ

[3] = molecular target: T1, Folylpolyglutamate synthase, mitochondrial (Mus musculus); assay: First order catalytic rate folyl-poly-glutamate synthetase
[4] = molecular target: T1, Folylpolyglutamate synthase, mitochondrial (Mus musculus); assay: Apparent catalytic rate constants (Km) owas determined from mouse liver Folyl-polyglutamate synthase
[5] = molecular target: T1, Folylpolyglutamate synthase, mitochondrial (Mus musculus); assay: First order catalytic rate constants (k) was determined from mouse liver Folyl-polyglutamate synthase
[6] = system: 6C3HED; assay: Percent inhibition against 6C3HED lymphosarcoma at dose 100 mg/kg in C3H mice; format: functional, Mus musculus
[7] = system: 6C3HED; assay: Percent inhibition against 6C3HED lymphosarcoma at dose 12.5 mg/kg in C3H mice; format: functional, Mus musculus
[8] = system: 6C3HED; assay: Percent inhibition against 6C3HED lymphosarcoma at dose 200 mg/kg in C3H mice; format: functional; details: Mus musculus
[9] = system: 6C3HED; assay: Percent inhibition against 6C3HED lymphosarcoma at dose 25 mg/kg in C3H mice; format: functional, Mus musculus
[10] = system: 6C3HED; assay: Percent inhibition against 6C3HED lymphosarcoma at dose 50 mg/kg in C3H mice; format: functional, Mus musculus
[11] = In vivo anti tumor activity (toxic/total) at dose 50 mg/kg in C3H mice with transplantable murine solid tumor 6C3HED lymphosarcoma, doses administered intraperitoneally on days 1,3,5,7 and 9;Compound was tested on 10 mice.; format: functional, Mus musculus; details: route intraperitoneal
[12] = In vivo antitumor activity (toxic/total) at dose 100 mg/kg in C3H mice with transplantable murine solid tumor C3H mammary adenocarcinoma, doses administered intraperitoneally on days 1,3,5,7 and 9;Compound was tested on 10 mice.; format: functional, Mus musculus; details: route intraperitoneal
[13] = In vivo antitumor activity (toxic/total) at dose 12.5 mg/kg in C3H mice with transplantable murine solid tumor C3H mammary adenocarcinoma, doses administered intraperitoneally on days 1,3,5,7 and 9;Compound was tested on 10 mice.; format: functional, Mus musculus; details: route intraperitoneal
[14] = In vivo antitumor activity (toxic/total) at dose 12.5 mg/kg in C3H mice with transplantable murine solid tumor C3H mammary adenocarcinoma; Compound was tested on 10 mice.; format: functional, Mus musculus
[15] = In vivo antitumor activity (toxic/total) at dose 25 mg/kg in C3H mice with transplantable murine solid tumor C3H mammary adenocarcinoma, doses administered intraperitoneally on days 1,3,5,7 and 9;Compound was tested on 10 mice.; format: functional, Mus musculus; details: route intraperitoneal
[16] = In vivo antitumor activity (toxic/total) at dose 25 mg/kg in C3H mice with transplantable murine solid tumor C3H mammary adenocarcinoma; Compound was tested on 10 mice.; format: functional, Mus musculus
[17] = In vivo antitumor activity (toxic/total) at dose 50 mg/kg in C3H mice with transplantable murine solid tumor C3H mammary adenocarcinoma, doses administered intraperitoneally on days 1,3,5,7 and 9;Compound was tested on 10 mice.; format: functional, Mus musculus; details: route intraperitoneal
[18] = In vivo antitumor activity (toxic/total) at dose 50 mg/kg in C3H mice with transplantable murine solid tumor C3H mammary adenocarcinoma; Compound was tested on 10 mice.; format: functional, Mus musculus
[19] = In vivo antitumor activity (toxic/total) at dose 6.25 mg/kg in C3H mice with transplantable murine solid tumor C3H mammary adenocarcinoma, doses administered intraperitoneally on days 1,3,5,7 and 9;Compound was tested on 10 mice.; format: functional, Mus musculus; details: route intraperitoneal
[20] = In vivo antitumor activity (toxic/total) at dose 6.25 mg/kg in C3H mice with transplantable murine solid tumor C3H mammary adenocarcinoma; Compound was tested on 10 mice.; format: functional, Mus musculus
[21] = In vivo antitumor avctivity (Toxic/total) at dose 100 mg/kg in C3H mice with transplantable murine solid tumor 6C3HED lymphosarcoma; Compound was tested on 10 mice.; format: functional, Mus musculus
[22] = In vivo antitumor avctivity (Toxic/total) at dose 12.5 mg/kg in C3H mice with transplantable murine solid tumor 6C3HED lymphosarcoma; Compound was tested on 10 mice.; format: functional, Mus musculus
[23] = In vivo antitumor avctivity (Toxic/total) at dose 25 mg/kg in C3H mice with transplantable murine solid tumor 6C3HED lymphosarcoma; Compound was tested on 10 mice.; format: functional, Mus musculus
[24] = In vivo antitumor avctivity (Toxic/total) at dose 50 mg/kg in C3H mice with transplantable murine solid tumor 6C3HED lymphosarcoma; Compound was tested on 10 mice.; format: functional, Mus musculus
[25] = In vivo antitumor avctivity (Toxic/total) at dose 6 mg/kg in C3H mice with transplantable murine solid tumor 6C3HED lymphosarcoma; Compound was tested on 10 mice.; format: functional, Mus musculus
[26] = In vivo anti tumor activity (toxic/total) at dose 200 mg/kg in C3H mice with transplantable murine solid tumor 6C3HED lymphosarcoma, doses administered intraperitoneally on days 1,3,5,7 and 9;Compound was tested on 10 mice.; format: functional, Mus musculus; details: route intraperitoneal
[27] = In vivo anti tumor activity (toxic/total) at dose 25 mg/kg in C3H mice with transplantable murine solid tumor 6C3HED lymphosarcoma, doses administered intraperitoneally on days 1,3,5,7 and 9;Compound was tested on 10 mice.; format: functional, Mus musculus; details: route intraperitoneal
[28] = Percent inhibition against C3H mammary adenocarcinoma at dose 100 mg/kg administered ip on days 1,3,5,7 and 9 in C3H mice; format: functional; details: Mus musculus, route intraperitoneal
[29] = Percent inhibition against C3H mammary adenocarcinoma at dose 12.5 mg/kg administered ip on days 1,3,5,7 and 9 in C3H mice; format: functional; details: Mus musculus, route intraperitoneal
[30] = Percent inhibition against C3H mammary adenocarcinoma at dose 25 mg/kg administered ip on days 1,3,5,7 and 9 in C3H mice; format: functional; details: Mus musculus, route intraperitoneal
[31] = Percent inhibition against C3H mammary adenocarcinoma at dose 25 mg/kg in C3H mice;Compound was toxic.; format: ADME, organism-based; design: dose 25 mg/kg; details: mouse, in vivo
[32] = Percent inhibition against C3H mammary adenocarcinoma at dose 50 mg/kg in C3H mice;Compound was toxic.; format: ADME, organism-based; design: dose 50 mg/kg; details: mouse, in vivo
[33] = Percent inhibition against C3H mammary adenocarcinoma at dose 6.25 mg/kg administered ip on days 1,3,5,7 and 9 in C3H mice; format: functional; details: Mus musculus, route intraperitoneal
[34] = Percent inhibition against C3H mammary adenocarcinoma at dose 6.25 mg/kg in C3H mice; format: functional; details: Mus musculus
[35] = In vivo anti tumor activity (toxic/total) at dose 100 mg/kg in C3H mice with transplantable murine solid tumor 6C3HED lymphosarcoma, doses administered intraperitoneally on days 1,3,5,7 and 9;Compound was tested on 9 mice.; format: functional, Mus musculus; details: route intraperitoneal
[36] = In vivo anti tumor activity (toxic/total) at dose 12.5 mg/kg in C3H mice with transplantable murine solid tumor 6C3HED lymphosarcoma, doses administered intraperitoneally on days 1,3,5,7 and 9;Compound was tested on 10 mice.; format: functional, Mus musculus; details: route intraperitoneal
[37] = system: 6C3HED; assay: Percent inhibition against 6C3HED lymphosarcoma at dose 6 mg/kg in C3H mice; format: functional; details: Mus musculus
[38] = Percent inhibition against C3H mammary adenocarcinoma at dose 50 mg/kg administered ip on days 1,3,5,7 and 9 in C3H mice; format: functional; details: Mus musculus, route intraperitoneal
[39] = molecular target: T1, Folylpolyglutamate synthase, mitochondrial (Mus musculus); assay: Apparent catalytic rate constants (Km) was determined from mouse liver Folyl-polyglutamate synthase

## CN(CC1CNc2nc(N)nc(O)c2C1)c1ccc(C(=O)N[C@@H](CCC(=O)O)C(=O)O)cc1 (stereo partly drawn)
[1]
  IC50: 40 nM

## CC(=O)N(CC1CNc2nc(N)nc(O)c2C1)c1ccc(C(=O)N[C@@H](CCC(=O)O)C(=O)O)cc1 (stereo partly drawn)
[1]
  IC50: 600 nM

## Nc1nc(=O)c2nc(CNc3ccc(C(=O)N[C@@H](CCC(=O)O)C(=O)O)cc3)cnc2[nH]1
[2]
  Km app: 140 µM
[3]
  k: 1

## Nc1nc(N)c2nc(CNc3ccc(C(=O)N[C@@H](CCC(=O)O)C(=O)O)cc3)cnc2n1
[4]
  Km app: 21 µM
[5]
  k: 10.1

## Nc1nc(O)c2c(n1)NCC(CNc1ccc(C(=O)N[C@@H](CCC(=O)O)C(=O)O)cc1)C2 (stereo in doubt; 7a) [listing 1 of 2 here]
[6]; 100 mg/kg
  Inhibition: 93%
[6]; Mus musculus, 6C3HED
  inhibition in vivo at 100 mg/kg: 100%
[7]
  Inhibition: 100% and 34%
[8]
  inhibition in vivo at 200 mg/kg: 98%
[9]
  Inhibition: 100% and 51%
[10]
  Inhibition: 100% and 74%
[11]
  tox/total: 0
[12]
  tox/total: 0
[13]
  tox/total: 0
[14]
  tox/total: 10
[15]
  tox/total: 0
[16]
  tox/total: 10
[17]
  tox/total: 0
[18]
  tox/total: 10
[19]
  tox/total: 0
[20]
  tox/total: 3
[21]
  tox/total: 9
[22]
  tox/total: 1
[23]
  tox/total: 3
[24]
  tox/total: 6
[25]
  tox/total: 0
[1]
  IC50: 10 nM
[26]
  tox/total: 3
[27]
  tox/total: 0
[28]
  inhibition in vivo at 100 mg/kg: 94%
[29]
  inhibition in vivo at 12.5 mg/kg: 61%
[30]
  inhibition in vivo at 25 mg/kg: 64%
[31]
  Inhibition: Toxic
[32]
  Inhibition: Toxic
[33]
  inhibition in vivo at 6.25 mg/kg: 50%
[34]
  inhibition in vivo at 6.25 mg/kg: 96%
[35]
  tox/total: 0
[36]
  tox/total: 0
[37]
  inhibition in vivo at 6 mg/kg: 77%
[38]
  inhibition in vivo at 50 mg/kg: 81%

## Nc1nc(O)c2c(n1)NCC(CNc1ccc(C(=O)N[C@@H](CCC(=O)O)C(=O)O)cc1)C2 (stereo in doubt; 7a) [listing 2 of 2 here]
[39]
  Km app: 1.06 µM
[5]
  k: 170
